# Reference: patent publication US20220079913A1, “DIHYDROMYRICETIN WITH ANTI-ALCOHOLIC EFFECT” (Shanghai Spark Pharmaceutical Co., Ltd., priority 2020, published 2022)
# Legend:
# [1] = cited from earlier work
# ICR mice [2] = assay: Anti-alcoholic (hangover) test; format: in vivo; details: for Number of deaths / Number of drunks: 20 animals; for Number of deaths / Number of drunks / Drunkenness rate / Mortality rate: after 10 hours of drinking
# Experimental: (§1) Preparation of test substance: weighing the test substance of the required quality; adding sterile water for injection to prepare it to the required concentration; mixing well before administration.
# (§2) Animal breeds and strains: ICR mice
# 60 experimental animals were divided into 3 groups, half male and […]. After fasting for 12 hours, according to the body weight, the control reagents the test substance were administered orally respectively.
# [3] = Acute toxicity of dihydromyricetin, single oral gavage; format: in vivo, mice; details: ICR, mouse, in vivo, po
# Experimental: (§3) Observation of the Acute Toxicity of Dihydromyricetin on ICR Mice
# as §1, §2
# (§4) After the adaptation period, 30 experimental animals were divided into 3 groups, half male and […]. After fasting for 12 hours, according to the body weight, the control reagents or the test substance were administered orally respectively. The animal's clinical symptoms after administration are observed, with abnormal records. The animals were weighed before the administration and on the 1, 3, 5, and 7 days after the administration. At the end of the experiment, the animals were euthanized by inhalation of excessive CO2
# ICR mice [4] = assay: as above; format: in vivo
# Experimental: as §3, §1, §2, §4
smiles,measurement,setting,value
"O=C1c2c(O)cc(O)cc2OC(c2cc(O)c(O)c(O)c2)C1O [Dihydromyricetin, (2R,3R)-3,5,7-trihydroxy-2-(3,4,5-trihydroxyphenyl) benzodihydropyran-4-one]",solubility in chloroform and petroleum ether,[1]; chloroform and petroleum ether,hardly soluble
same,solubility in ethyl acetate,[1]; ethyl acetate,very slightly soluble
same,"solubility in methanol, ethanol and acetone","[1]; methanol, ethanol and acetone",easily soluble
same,solubility in water,[1]; room temperature and cold water,Low solubility
same,Sobering time,ICR mice [2]; 350 mg/kg i.g. once,376.35 min
same,Tolerance time,ICR mice [2]; 350 mg/kg i.g. once,77.40 min
same,Number of deaths,ICR mice [2]; 350 mg/kg i.g. once,0
same,Number of drunks,ICR mice [2]; 350 mg/kg i.g. once,19
same,Drunkenness rate,ICR mice [2]; 350 mg/kg i.g. once,95%
same,Mortality rate,ICR mice [2]; 350 mg/kg i.g. once,0%
same,Sobering time,ICR mice [2]; 1050 mg/kg i.g. once,214.32 min
same,Tolerance time,ICR mice [2]; 1050 mg/kg i.g. once,193.00 min
same,Number of deaths,ICR mice [2]; 1050 mg/kg i.g. once,1
same,Number of drunks,ICR mice [2]; 1050 mg/kg i.g. once,14
same,Drunkenness rate,ICR mice [2]; 1050 mg/kg i.g. once,70%
same,Mortality rate,ICR mice [2]; 1050 mg/kg i.g. once,5%
same,Sobering time,"ICR mice [2]; 1050 mg/kg i.g. once, listed as dihydromyricetin",214 min
same,sobering time compared with the control group,"ICR mice [2]; 1050 mg/kg, control group 324 min, statistically different",significantly lower
same,MTD at 7 days,[3],5000 mg/kg
same,Mortality rate,"ICR mice [4]; 3500 mg/kg i.g. once, day 0",0%
same,Mortality rate,"ICR mice [4]; 3500 mg/kg i.g. once, day 1",0%
same,Mortality rate,"ICR mice [4]; 3500 mg/kg i.g. once, day 2",0%
same,Mortality rate,"ICR mice [4]; 3500 mg/kg i.g. once, day 3",0%
same,Mortality rate,"ICR mice [4]; 3500 mg/kg i.g. once, day 4",0%
same,Mortality rate,"ICR mice [4]; 3500 mg/kg i.g. once, day 5",0%
same,Mortality rate,"ICR mice [4]; 3500 mg/kg i.g. once, day 6",0%
same,Mortality rate,"ICR mice [4]; 3500 mg/kg i.g. once, day 7",0%
same,Mortality rate,"ICR mice [4]; 5000 mg/kg i.g. once, day 0",0%
same,Mortality rate,"ICR mice [4]; 5000 mg/kg i.g. once, day 1",0%
same,Mortality rate,"ICR mice [4]; 5000 mg/kg i.g. once, day 2",0%
same,Mortality rate,"ICR mice [4]; 5000 mg/kg i.g. once, day 3",0%
same,Mortality rate,"ICR mice [4]; 5000 mg/kg i.g. once, day 4",0%
same,Mortality rate,"ICR mice [4]; 5000 mg/kg i.g. once, day 5",0%
same,Mortality rate,"ICR mice [4]; 5000 mg/kg i.g. once, day 6",0%
same,Mortality rate,"ICR mice [4]; 5000 mg/kg i.g. once, day 7",0%
same,mortality rate during the test period,"ICR mice [4]; 3500 and 5000 mg/kg, single oral administration",0
